Earlier results in patent publication US12303597B2, “Naloxone formulations for sublingual and/or buccal administration” (Pharmaceutical Productions, Inc., priority 2019, dated 2025).
Structures can show the parent of a compound that is named as a salt. Where two headings read alike, the source gives them in different places.

For `C=CCN1CC[C@]23c4c5ccc(O)c4O[C@H]2C(=O)CC[C@@]3(O)[C@H]1C5` [Naloxone hydrochloride], the solubility in water (hydrochloride) is given as “soluble in water”.
In the case of `C=CCN1CC[C@]23c4c5ccc(O)c4O[C@H]2C(=O)CC[C@@]3(O)[C@H]1C5` [naloxone base, 17-allyl-4,5α-epoxy-3,14-dihydroxymorphinan-6-one], the solubility in water is given as “insoluble in water”.
